Legend:
NOD1 H517A = target: T1, NOD1 H517A (Homo sapiens, UniProt Q9Y239, H517A); test: MST binding to purified NOD1 H517A-GFP
T1 construct: made in house
T1 sequence (Q9Y239 1-953 H517A): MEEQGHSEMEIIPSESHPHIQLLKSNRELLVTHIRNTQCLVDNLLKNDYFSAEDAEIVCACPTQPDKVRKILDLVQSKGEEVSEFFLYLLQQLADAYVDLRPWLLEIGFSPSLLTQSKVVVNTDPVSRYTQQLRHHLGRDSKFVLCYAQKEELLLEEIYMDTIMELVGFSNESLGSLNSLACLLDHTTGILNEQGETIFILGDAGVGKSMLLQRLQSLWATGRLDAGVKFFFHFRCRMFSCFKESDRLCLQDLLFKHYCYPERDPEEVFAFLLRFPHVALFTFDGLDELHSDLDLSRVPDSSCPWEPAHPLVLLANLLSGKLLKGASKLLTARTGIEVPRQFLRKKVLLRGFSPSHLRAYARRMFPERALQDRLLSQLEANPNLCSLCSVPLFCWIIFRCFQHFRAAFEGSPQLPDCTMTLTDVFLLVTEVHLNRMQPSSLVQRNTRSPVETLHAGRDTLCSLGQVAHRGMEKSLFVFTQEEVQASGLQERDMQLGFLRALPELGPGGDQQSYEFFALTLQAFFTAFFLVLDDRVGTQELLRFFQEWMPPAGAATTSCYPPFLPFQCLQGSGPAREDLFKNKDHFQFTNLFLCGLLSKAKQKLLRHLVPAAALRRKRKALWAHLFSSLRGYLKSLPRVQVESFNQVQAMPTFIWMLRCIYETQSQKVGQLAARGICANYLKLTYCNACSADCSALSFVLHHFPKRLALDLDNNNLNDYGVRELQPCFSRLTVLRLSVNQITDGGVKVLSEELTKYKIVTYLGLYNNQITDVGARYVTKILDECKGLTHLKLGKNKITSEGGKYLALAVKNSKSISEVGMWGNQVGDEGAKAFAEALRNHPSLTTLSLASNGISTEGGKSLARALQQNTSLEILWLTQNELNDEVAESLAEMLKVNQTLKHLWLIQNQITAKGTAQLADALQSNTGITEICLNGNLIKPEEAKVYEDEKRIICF
Method: The mutagenesis was performed with Q5® site‐directed mutagenesis kit (E0554, NEB) according to the manufacturer's instructions. The primers used in this study were as follows: NOD1 E157A F: 5′‐[…]gcg[…]‐3′, NOD1 E157A R: 5′‐[…]‐3′, NOD1 D161A F: 5′‐[…]gcg[…]‐3′, NOD1 D161A R: 5′‐[…]‐3′, NOD1 D203A F: 5′‐[…]gcg[…]‐3′, D203A R: 5′‐[…]‐3′, L218A F: 5′‐[…]gcg[…]‐3′, L218A R: 5′‐[…]‐3′, R237A F: 5′‐[…]gcg[…]‐3′, R237A R: 5′‐[…]‐3′, H257A F: 5′‐[…]gcg[…]‐3′, H257A R: 5′‐[…]‐3′, E267A F: 5′‐[…]gcg[…]‐3′, E267A R: 5′‐[…]‐3′, H290A F: 5′‐[…]gcg[…]‐3′, H290A R: 5′‐[…]‐3′, E306A F: 5′‐[…]gcg[…]‐3′, E306A R: 5′‐[…]‐3′, K324A F: 5′‐[…]gcg[…]‐3′, K324A R: 5′‐[…]‐3′, K328A F: 5′‐[…]gcg[…]‐3′, K328A R: 5′‐[…]‐3′, R340A F: 5′‐[…]gcg[…]‐3′, R340A R: 5′‐[…]‐3′, R344A F: 5′‐[…]gcg[…]‐3′, R344A R: 5′‐[…]‐3′, R350A F: 5′‐[…]gcg[…]‐3′, R350A R: 5′‐[…]‐3′, D372A F: 5′‐[…]gcg[…]‐3′, D372A R: 5′‐[…]‐3′, R373A F: 5′‐[…]gcg[…]‐3′, R373A R: 5′‐[…]‐3′, R399A F: 5′‐[…]gcg[…]‐3′, R399A R: 5′‐[…]‐3′, D423A F: 5′‐[…]gcg[…]‐3′, D423A R: 5′‐[…]‐3′, R435A F: 5′‐5′‐[…]gcg[…]‐3′, R435A R: 5′‐[…]‐3′, Q484A F: 5′‐[…]gcg[…]‐3′, Q484A R: 5′‐[…]‐3′, L495A F: 5′‐[…]gcg[…]‐3′, L495A R: 5′‐[…]‐3′, E514A F: 5′‐[…]gcg[…]‐3′, E514A R: 5′‐[…]‐3′, H517A F: 5′‐[…]gcg[…]‐3′, H517A R: 5′‐[…]‐3′, L540A F: 5′‐[…]gcg[…]‐3′, L540A R: 5′‐[…]‐3′, F544A F: 5′‐[…]gcg[…]‐3′, and F544A R: 5′‐[…]‐3′.

NLRP3 = target: T2, NLRP3 (Homo sapiens, UniProt Q96P20); test: MST binding to NLRP3-GFP; conditions: Fig 6C
T2 construct: Addgene (plasmid only) 73955
T2 sequence (Q96P20 whole entry): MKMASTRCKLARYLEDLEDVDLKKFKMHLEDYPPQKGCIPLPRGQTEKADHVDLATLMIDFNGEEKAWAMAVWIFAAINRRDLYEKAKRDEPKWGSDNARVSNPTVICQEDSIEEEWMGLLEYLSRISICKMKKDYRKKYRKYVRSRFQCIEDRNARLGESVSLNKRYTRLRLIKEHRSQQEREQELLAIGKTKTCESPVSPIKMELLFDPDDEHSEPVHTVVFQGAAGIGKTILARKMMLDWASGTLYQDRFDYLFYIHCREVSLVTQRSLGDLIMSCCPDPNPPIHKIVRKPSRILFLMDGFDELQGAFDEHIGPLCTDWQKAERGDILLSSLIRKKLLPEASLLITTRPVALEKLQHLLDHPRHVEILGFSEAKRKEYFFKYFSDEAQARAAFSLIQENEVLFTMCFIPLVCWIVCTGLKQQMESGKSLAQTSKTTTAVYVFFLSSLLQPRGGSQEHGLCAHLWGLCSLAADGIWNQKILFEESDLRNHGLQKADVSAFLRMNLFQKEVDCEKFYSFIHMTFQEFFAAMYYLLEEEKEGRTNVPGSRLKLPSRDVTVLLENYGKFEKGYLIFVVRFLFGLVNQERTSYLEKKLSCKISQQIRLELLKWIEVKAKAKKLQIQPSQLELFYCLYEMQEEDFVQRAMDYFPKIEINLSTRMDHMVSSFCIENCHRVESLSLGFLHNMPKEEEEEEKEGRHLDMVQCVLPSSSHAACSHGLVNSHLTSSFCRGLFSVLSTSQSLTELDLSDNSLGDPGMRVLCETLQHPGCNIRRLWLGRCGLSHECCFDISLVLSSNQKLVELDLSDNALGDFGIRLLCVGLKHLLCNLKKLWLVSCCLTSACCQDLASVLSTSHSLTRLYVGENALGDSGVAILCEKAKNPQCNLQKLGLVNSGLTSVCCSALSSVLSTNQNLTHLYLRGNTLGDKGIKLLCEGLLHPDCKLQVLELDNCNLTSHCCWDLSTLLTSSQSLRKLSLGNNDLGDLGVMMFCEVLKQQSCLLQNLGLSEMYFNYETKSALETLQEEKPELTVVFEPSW
Method: Binding of NOD1, NOD2, GFP, or NLRP3‐GFP to different ligands was measured by microscale thermophoresis (MST). 20 nM GFP or GFP‐tagged proteins in MST buffer (PBS pH 7.4, containing 0.5% NP‐40 and 10 mM DTT) was incubated with different concentrations of ligands. Immediately, samples were loaded into standard glass capillaries (NanoTemper) and thermophoresis analysis was performed on a NanoTemper Monolith NT.115 instrument (40% LED, 80% MST power) at 22°C. A laser on‐time of 30 s and a laser off‐time of 5 s were used. The experiment was performed in triplicates, and the MST curves were fitted using NT analysis software to obtain the K d values.

## CCCCCCCCCCCCC/C=C/[C@@H](O)[C@@H](N)COP(=O)(O)O [S1P, sphingosine‐1‐phosphate]
NOD1 H517A; Kd value of NOD1 H517A with S1P
  Kd: ~15 µM
NOD1 H517A; Kd(NOD1 H517A: S1P), Fig 7E
  Kd: 13.7 ± 6.1 µM
NLRP3
  Direct interaction with NLRP3 by MST: not observed

From publication PMC8246065 (The EMBO Journal, 2021)
